We go through two compounds from patent publication US20260271926A1, “BACTERIA-RESPONSIVE PARTICLES, METHODS FOR PREPARATION, AND USE IN PACKAGING OR ON SURFACES” (priority 2023, published 2026).

The nature of data set [1]: Calcein fluorescence stability in 1685 NYC III medium and G. vaginalis supernatant. The class given is physicochemical. The following applies: 10 μg/mL calcein, 37° C., 140 hours. As for the experimental part: Bacteria-responsive calcein release of liposomes. Calcein's stability in different media was evaluated by measuring its fluorescence intensity that varied with time in 1685 NYC III medium and G. vaginalis supernatant, respectively. Briefly, calcein was dissolved in the medium to reach a concentration of 10 μg/mL (with 1% v/v penicillin/streptomycin) added. The solution was incubated at 37° C. and shaken at 100 rpm (avoid light). Samples were taken at different time intervals and changes of fluorescence intensity were monitored.

Data set [2] relates to human red blood cells (RBCs). Briefly: Hemolytic activity assay. The class given is cell-based. The following applies: 2% human RBCs, 30 min, 37° C. On the procedure:
Hemolytic Activity Assay. For hemolytic assays, washed human red blood cells (RBCs) (Innovative Research, Novi, MI USA) were suspended in 1×PBS (pH 7.2, Wisent, Quebec City, QC Canada) to a final concentration of 2%. For sequestration studies, liposomal samples were diluted in PBS to the desired concentration and added to the erythrocytes. The hemolytic reaction was then initiated through the addition of either bacterial supernatant normalized to a 0.5 McFarland standard or recombinant S. pneumoniae serotype 2 PLY (E. coli host expression, MyBioSource, San Diego, CA USA) at the desired volume or concentration. For assays involving PLY, the toxin was preincubated with 2 mM dithiothreitol (DTT) for 1 hr at room temperature prior to the assay in order to reduce the cysteine residue present in the undecapeptide sequence and activate the protein [59]. The solution was incubated in a 1.5 ml Eppendorf microtube for 30 min at 37° C. and non-lysed RBCs were pelleted via centrifugation at 1000×g for 10 min at 4° C. The supernatant was then collected and transferred to a 96 well plate, with the extent of hemoglobin release determined via absorbance measurements at 450 nm. A control set was also included, involving a negative control of RBCs in only PBS and a positive control of RBCs in a 0.02% Triton™ X-100 solution (100% lysis). Percent lysis was determined from these readouts as per Eq (4): […]

Turning to `O=C(O)CN(CC(=O)O)Cc1cc2c(cc1O)Oc1cc(O)c(CN(CC(=O)O)CC(=O)O)cc1C21OC(=O)c2ccccc21` [calcein], in data set [1], the calcein fluorescence decrease is 11-15%.
For the compound pneumolysin [PLY], the “concentration giving full lysis” value in data set [2] came out at 200 ng/mL.
